Results from ChEMBL document CHEMBL1777781, “Synthesis and antidyslipidemic activity of chalcone fibrates” (2011).
Values belong to the molecule of their own block, whether it stands above or below them.

Key:
[1] = test system: Syrian golden hamster; test: Antidyslipidemic activity against high fructose high fat diet fed syrian golden hamster assessed as change in serum HDL-cholesterol at 30 mg/kg, po for 7 days relative to untreated control; assay type: functional, Mesocricetus auratus
[2] = test system: Syrian golden hamster; test: Antidyslipidemic activity against high fructose high fat diet fed syrian golden hamster assessed as reduction in serum triglyceride at 30 mg/kg, po for 7 days relative to untreated control; assay type: functional, Mesocricetus auratus; parameters: scale not given: the % may be the effect or the level left
[3] = test system: Syrian golden hamster; test: Antidiabetic activity against high fructose high fat diet fed syrian golden hamster assessed as change in serum insulin level at 30 mg/kg, po for 7 days by ELISA relative to untreated control; assay type: functional, Mesocricetus auratus
[4] = test system: Syrian golden hamster; test: Antidyslipidemic activity against high fructose high fat diet fed syrian golden hamster assessed as reduction in serum LDL-cholesterol at 30 mg/kg, po for 7 days relative to untreated control; assay type: functional, Mesocricetus auratus; parameters: scale not given: the % may be the effect or the level left
[5] = test system: Syrian golden hamster; test: Antidyslipidemic activity against high fructose high fat diet fed syrian golden hamster assessed as reduction in serum cholesterol at 30 mg/kg, po for 7 days relative to untreated control; assay type: functional, Mesocricetus auratus; parameters: scale not given: the % may be the effect or the level left
[6] = test system: Syrian golden hamster; test: Antidiabetic activity against high fructose high fat diet fed syrian golden hamster assessed as change in fasting blood glucose level at 30 mg/kg, po for 7 days relative to untreated control; assay type: functional, Mesocricetus auratus
[7] = test system: Syrian golden hamster; test: Antidyslipidemic activity against high fructose high fat diet fed po dosed syrian golden hamster assessed as increase in serum HDL-cholesterol administered for 7 days relative to untreated control; assay type: functional, organism-based; conditions: Mesocricetus auratus
[8] = test system: Syrian golden hamster; test: Antidyslipidemic activity against high fructose high fat diet fed syrian golden hamster assessed as increase in lipoprotein lipase activity at 30 mg/kg, po for 7 days relative to untreated control; assay type: functional, Mesocricetus auratus
[9] = test system: Syrian golden hamster; test: Antidyslipidemic activity against high fructose high fat diet fed syrian golden hamster assessed as reduction in NEFA level at 10 mg/kg, po for 7 days relative to untreated control; assay type: functional, Mesocricetus auratus; parameters: scale not given: the % may be the effect or the level left
[10] = test system: Syrian golden hamster; test: Antidyslipidemic activity against high fructose high fat diet fed syrian golden hamster assessed as reduction in body weight at 30 mg/kg, po for 7 days relative to untreated control; assay type: functional, Mesocricetus auratus; parameters: scale not given: the % may be the effect or the level left
[11] = test system: Syrian golden hamster; test: Antidyslipidemic activity against high fructose high fat diet fed syrian golden hamster assessed as reduction in NEFA level at 30 mg/kg, po for 7 days relative to untreated control; assay type: functional, Mesocricetus auratus; parameters: scale not given: the % may be the effect or the level left
[12] = test system: Syrian golden hamster; test: Antidyslipidemic activity against high fructose high fat diet fed po dosed syrian golden hamster assessed as reduction in serum cholesterol administered for 7 days relative to untreated control; assay type: functional, organism-based; conditions: Mesocricetus auratus
[13] = test system: Syrian golden hamster; test: Antidyslipidemic activity against high fructose high fat diet fed po dosed syrian golden hamster assessed as reduction in glycerol level administered for 7 days relative to untreated control; assay type: functional, organism-based; conditions: Mesocricetus auratus
[14] = test system: Syrian golden hamster; test: Antidyslipidemic activity against high fructose high fat diet fed po dosed syrian golden hamster assessed as reduction in serum LDL-cholesterol administered for 7 days relative to untreated control; assay type: functional, organism-based; conditions: Mesocricetus auratus
[15] = test system: Syrian golden hamster; test: Antidyslipidemic activity against high fructose high fat diet fed po dosed syrian golden hamster assessed as reduction in NEFA level administered for 7 days relative to untreated control; assay type: functional, organism-based; conditions: Mesocricetus auratus
[16] = test system: Syrian golden hamster; test: Antidyslipidemic activity against high fructose high fat diet fed syrian golden hamster assessed as reduction in serum LDL-cholesterol at 10 mg/kg, po for 7 days relative to untreated control; assay type: functional, Mesocricetus auratus; parameters: scale not given: the % may be the effect or the level left
[17] = test system: Syrian golden hamster; test: Antidyslipidemic activity against high fructose high fat diet fed syrian golden hamster assessed as reduction in glycerol level at 10 mg/kg, po for 7 days relative to untreated control; assay type: functional, Mesocricetus auratus; parameters: scale not given: the % may be the effect or the level left
[18] = test system: Syrian golden hamster; test: Antidyslipidemic activity against high fructose high fat diet fed syrian golden hamster assessed as increase in lipoprotein lipase activity at 10 mg/kg, po for 7 days relative to untreated control; assay type: functional, Mesocricetus auratus
[19] = test system: Syrian golden hamster; test: Antidyslipidemic activity against high fructose high fat diet fed po dosed syrian golden hamster assessed as reduction in serum triglyceride administered for 7 days relative to untreated control; assay type: functional, organism-based; conditions: Mesocricetus auratus
[20] = test system: Syrian golden hamster; test: Antidyslipidemic activity against high fructose high fat diet fed syrian golden hamster assessed as reduction in serum cholesterol at 10 mg/kg, po for 7 days relative to untreated control; assay type: functional, Mesocricetus auratus; parameters: scale not given: the % may be the effect or the level left
[21] = test system: Syrian golden hamster; test: Antidyslipidemic activity against high fructose high fat diet fed syrian golden hamster assessed as reduction in serum triglyceride at 10 mg/kg, po for 7 days relative to untreated control; assay type: functional, Mesocricetus auratus; parameters: scale not given: the % may be the effect or the level left
[22] = test system: Syrian golden hamster; test: Antidyslipidemic activity against high fructose high fat diet fed syrian golden hamster assessed as change in serum HDL-cholesterol at 10 mg/kg, po for 7 days relative to untreated control; assay type: functional, Mesocricetus auratus
[23] = test system: Syrian golden hamster; test: Antidyslipidemic activity against high fructose high fat diet fed syrian golden hamster assessed as reduction in glycerol level at 30 mg/kg, po for 7 days relative to untreated control; assay type: functional, Mesocricetus auratus; parameters: scale not given: the % may be the effect or the level left
[24] = test system: Syrian golden hamster; test: Antidyslipidemic activity against high fructose high fat diet fed po dosed syrian golden hamster assessed as increase in lipoprotein lipase activity administered for 7 days relative to untreated control; assay type: functional, organism-based; conditions: Mesocricetus auratus

Compound: CCOC(=O)C(C)(C)Oc1ccc(C(=O)/C=C/c2cc(Cl)cc(Cl)c2)cc1
Activity [1]: 10.1%
Activity [2]: 17.4%
Activity [3]: -12.1%
Activity [4]: 16.8%
Activity [5]: 16.9%
Activity [6]: -8.4%

Compound: CCOC(=O)C(C)(C)Oc1ccc(C(=O)/C=C/c2ccc(OC)cc2)cc1
Activity [1]: -9.9%
Activity [2]: 31.2%
Activity [3]: -5.87%
Activity [4]: 27.4%
Activity [5]: 9.3%
Activity [6]: -16.9%

Activity [24]: Dose-dependent effect
Compound: CCOC(=O)C(C)(C)Oc1ccc(C(=O)/C=C/c2ccc3c(c2)OCO3)cc1
Activity [7]: Dose-dependent effect
Activity [8]: 30.2%
Activity [9]: 6.73%
Activity [1]: 9.8%
Activity [2]: 41.6%
Activity [3]: -22.2%
Activity [10]: 6.25%
Activity [11]: 20.5%
Activity [12]: Dose-dependent effect
Activity [4]: 41.7%
Activity [13]: Dose-dependent effect
Activity [14]: Dose-dependent effect
Activity [15]: Dose-dependent effect
Activity [16]: 25.2%
Activity [17]: 14.9%
Activity [18]: 14.5%
Activity [19]: Dose-dependent effect
Activity [20]: 18.6%
Activity [21]: 20%
Activity [22]: 3.78%
Activity [5]: 26.8%
Activity [6]: -14.8%
Activity [23]: 24.9%

Compound: CCOC(=O)C(C)(C)Oc1cccc(/C=C/C(=O)c2ccccc2)c1
Activity [1]: 2.1%
Activity [2]: 18.5%
Activity [3]: -5.89%
Activity [4]: 15.3%
Activity [5]: 11.5%
Activity [6]: -10.5%

Compound: CCOC(=O)C(C)(C)Oc1ccc(/C=C/C(=O)c2ccccc2)cc1
Activity [1]: 10.8%
Activity [2]: 25.1%
Activity [3]: 6.78%
Activity [4]: 16.8%
Activity [5]: 17.8%
Activity [6]: 8.8%

Compound: CC(C)OC(=O)C(C)(C)Oc1ccc(C(=O)c2ccc(Cl)cc2)cc1 [FENOFIBRATE]
Activity [8]: 21.1%
Activity [1]: 9.8%
Activity [2]: 28.9%
Activity [3]: -11.5%
Activity [4]: 30.1%
Activity [6]: -5.4%
Activity [23]: 22.4%

Activity [24]: Dose-dependent effect
Compound: CCOC(=O)C(C)(C)Oc1ccc(C(=O)/C=C/c2ccc([N+](=O)[O-])cc2)cc1
Activity [7]: Dose-dependent effect
Activity [8]: 21.7%
Activity [9]: 2.45%
Activity [1]: 5.88%
Activity [2]: 30.4%
Activity [3]: -24.3%
Activity [10]: 6.85%
Activity [11]: 15.9%
Activity [12]: Dose-dependent effect
Activity [4]: 28.5%
Activity [13]: Dose-dependent effect
Activity [14]: Dose-dependent effect
Activity [15]: Dose-dependent effect
Activity [16]: 16.9%
Activity [17]: 7.93%
Activity [18]: 10.8%
Activity [19]: Dose-dependent effect
Activity [20]: 15.6%
Activity [21]: 20%
Activity [22]: -3.36%
Activity [5]: 25%
Activity [6]: -7.49%
Activity [23]: 17.2%

Compound: CCOC(=O)C(C)(C)Oc1ccc(C(=O)/C=C/c2ccccc2Cl)cc1
Activity [1]: 15.6%
Activity [2]: 21.3%
Activity [3]: 2.39%
Activity [4]: 16.4%
Activity [5]: 0.48%
Activity [6]: 4.65%

Compound: CCOC(=O)C(C)(C)Oc1ccc(C(=O)/C=C/c2ccc(F)cc2)cc1
Activity [1]: 4.8%
Activity [2]: 22.2%
Activity [3]: -4.9%
Activity [4]: 23.2%
Activity [5]: 16.8%
Activity [6]: -18.4%

Compound: CCOC(=O)C(C)(C)Oc1ccc(C(=O)/C=C/c2ccc(Cl)cc2)cc1
Activity [1]: -2.52%
Activity [2]: 22.7%
Activity [3]: -22.2%
Activity [4]: 20.5%
Activity [5]: 23.7%
Activity [6]: 5.4%

Compound: CCOC(=O)C(C)(C)Oc1ccc(C(=O)/C=C/c2ccc(C)cc2)cc1
Activity [1]: 2.52%
Activity [2]: 22.7%
Activity [3]: -10.8%
Activity [4]: 19.8%
Activity [5]: 23.4%
Activity [6]: -12.9%
